Measured values: patent publication US6558671B1, “Cysteine-depleted peptides recognized by A3-restricted cytotoxic lymphocytes, and uses therefor” (The University of Virginia Patent Foundation, priority 1997, dated 2003)
“Also recorded” adds a separate entry of the source. Where two headings read alike, the source gives them in different places.

Tests used:
[1] = test system: HLA-A1-restricted VMM15 CTL; assay: 4-hour chromium release assay, peptide-pulsed C1R-A1 targets with VMM15 CTL; format: cell-based, human; details: for CTL recognition compared with the wild-type peptide: alanine or serine substituted peptides, FIG. 8; for reconstitution of an epitope for VMM15 CTL / recognition by VMM15 CTL: C1R-A1 cells pulsed with synthetic peptide at 0.1 to 10 uM, FIG. 3; for recognition by VMM15 CTL in peptide screening: screen of tyrosinase peptides matching the HLA-A1 motif, one experiment with 48 peptides; for recognition of peptide-pulsed C1R-A1 cells in dose-titration assay: HPLC-purified peptides, FIG. 7
VMM12 CTL = assay: 4-hour chromium release assay, peptide-pulsed C1R-A1 targets with VMM12 CTL; format: cell-based, human; details: C1R-A1 cells pulsed with peptide at 1 to 0.01 μM; FIG. 4
VMM15 CTL = assay: Cold target inhibition assay with VMM15 CTL; format: cell-based, human; details: for inhibition of lysis of labeled peptide-pulsed targets by unlabeled targets pulsed with the peptide: VMM15 EBV targets pulsed at 20 μg/ml, effector-to-labeled target ratio 10:1, FIG. 9
Method: FIG. 9. […] (SEQ ID NO:73) for recognition by VMM15 CTL. […] (SEQ ID NO:79), or no peptide, as indicated. Increasing numbers of these various unlabeled targets were pre-incubated with VMM15 CTL for 1 hour at 37° C. Labeled (hot) targets were then added for an additional 4 hour co-culture at a final effector-to-labeled target ratio of 10:1.
(SEQ ID NO:19), and because of the similar dose-titration curves observed for CTL recognition (FIG. […] (SEQ ID NO:19)) of both peptides adopt a similar conformation when bound to HLA-A1. A cold target inhibition assay was performed with peptide-pulsed target cells to test that hypothesis.

H-Y specific CTL = details: cited from earlier work
[2] = C1R-A1 targets, E:T 25:1, FIG. 8A, read-out: half-maximal lysis, nonamer

Sequence: DAEKADICTDEY [dodecamer with alanine replacing the cysteine at position 5]
- EC50 ([1]; C1R-A1 targets, E:T 10:1, FIG. 8B, read-out: half-maximal lysis, dodecamer): ~100 nM
- CTL recognition compared with the wild-type peptide [1]: significantly greater recognition

Sequence: DAEKCDIATDEY [dodecamer with alanine substituted for the cysteine at position 8]
- CTL recognition compared with the wild-type peptide [1]: prevented recognition at every concentration tested

Sequence: DAEKCDICTDEY
- reconstitution of an epitope for VMM12 CTL (VMM12 CTL): reconstituted an epitope for these VMM12 CTL, although weakly
- reconstitution of an epitope for VMM15 CTL / recognition by VMM15 CTL [1]: recognized; also recorded: reconstituted
- EC50 ([1]; C1R-A1 targets, E:T 10:1, FIG. 8B, read-out: half-maximal sensitization of target cells for lysis, dodecamer): 10000 nM
- recognition by VMM15 CTL in peptide screening [1]: recognized
- inhibition of lysis of peptide-pulsed targets by cold wild-type VMM15 tumor cells (VMM15 CTL; targets pulsed with peptide at 50 μg/ml): can be inhibited

Sequence: DAEKSDICTDEY [dodecamer with serine replacing the more N-terminal cysteine]
- inhibition of lysis of labeled peptide-pulsed targets by unlabeled targets pulsed with the peptide (VMM15 CTL): competes

Sequence: EKCDICTDEY
- reconstitution of an epitope for VMM15 CTL / recognition by VMM15 CTL [1]: recognized; also recorded: reconstituted
- recognition of peptide-pulsed C1R-A1 cells in dose-titration assay ([1]; E:T 25:1): equally reactive
- recognition by VMM15 CTL in peptide screening [1]: recognized

Sequence: FIDSYICQV
- effect of cysteinylation of the cysteine on recognition (H-Y specific CTL): improving recognition by one clone, and reducing recognition by another

Sequence: KADICTDEY [nonamer with alanine replacing the cysteine at position 2]
- EC50 [1, 2]: 20 nM
- CTL recognition compared with the wild-type peptide [1]: significantly greater recognition

Sequence: KCDIATDEY [nonamer with alanine substituted for the cysteine distal to the N-terminus]
- CTL recognition compared with the wild-type peptide [1]: not discernibly more effective than the wild-type peptide

Sequence: KCDICTDEY
- reconstitution of an epitope for VMM15 CTL / recognition by VMM15 CTL [1]: reconstitutes an epitope for VMM15 CTL; also recorded: most effective; also recorded: reconstituted
- half-maximal lysis ([1]; Example A1-1): approximately 1 ug/ml
- EC50 ([1]; Example A1-1, read-out: half-maximal lysis): ~1000 nM
- recognition of peptide-pulsed C1R-A1 cells in dose-titration assay ([1]; E:T 25:1): equally reactive
- recognition by VMM15 CTL in peptide screening [1]: recognized

Sequence: KCDISTDEY [nonamer with serine substituted for the cysteine distal to the N-terminus]
- CTL recognition compared with the wild-type peptide [1]: not discernibly more effective than the wild-type peptide

Sequence: KSDICTDEY [nonamer with serine replacing the cysteine at position 2]
- EC50 [1, 2]: 2 nM
- CTL recognition compared with the wild-type peptide [1]: significantly greater recognition
- inhibition of lysis of labeled peptide-pulsed targets by unlabeled targets pulsed with the peptide (VMM15 CTL): similarly inhibited
